# Measured values: PubChem BioAssay AID330 (DTP/NCI, 2004)
# Values joined by “and” are separate entries in the source; they are usually repeats but may differ in a detail not shown here. Identical values can stand only once. Toxic doses and inconclusive results are not listed.
# System: P388 leukemia ip, CD2F1 mice, survival T/C
# Assay: NCI In Vivo Anticancer Drug Screen. Data for tumor model P388 Leukemia (intraperitoneal) in CD2F1 (CDF1) mice
# Details: endpoint: median survival time, higher = longer survival
# Method in brief: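 Mice carrying the transplanted tumor received test compound or vehicle. Survival was recorded in each group, and the value is the treated-group measurement divided by that of the vehicle-treated control group.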
# [1] = dose: 100.0 mg/kg/injection, schedule: Q01DX001 (ip), vehicle: saline with Tween-80
# [2] = dose: 200.0 mg/kg/injection, schedule: Q01DX001 (ip), vehicle: saline with Tween-80
# [3] = dose: 400.0 mg/kg/injection, schedule: Q01DX001 (ip), vehicle: saline with Tween-80
# [4] = dose: 50.0 mg/kg/injection, schedule: Q01DX009 (ip), vehicle: saline with Tween-80
# [5] = dose: 100.0 mg/kg/injection, schedule: Q01DX009 (ip), vehicle: saline with Tween-80
# [6] = dose: 200.0 mg/kg/injection, schedule: Q01DX009 (ip), vehicle: saline with Tween-80
# [7] = dose: 50.0 mg/kg/injection, schedule: Q01DX005 (ip), vehicle: saline with Tween-80
# [8] = dose: 100.0 mg/kg/injection, schedule: Q01DX005 (ip), vehicle: saline with Tween-80
# [9] = dose: 200.0 mg/kg/injection, schedule: Q01DX005 (ip), vehicle: saline with Tween-80
# [10] = dose: 100.0 mg/kg/injection, schedule: Q04DX003 (ip), vehicle: saline with Tween-80
# [11] = dose: 200.0 mg/kg/injection, schedule: Q04DX003 (ip), vehicle: saline with Tween-80
# [12] = dose: 50.0 mg/kg/injection, schedule: Q01DX009 (ip), vehicle: saline
# [13] = dose: 100.0 mg/kg/injection, schedule: Q01DX009 (ip), vehicle: saline
# [14] = dose: 50.0 mg/kg/injection, schedule: Q01DX009 (ip), vehicle: Klucel (hydroxypropylcellulose) (HPC)
# [15] = dose: 100.0 mg/kg/injection, schedule: Q04DX002 (ip), vehicle: Klucel (hydroxypropylcellulose) (HPC)
# [16] = dose: 200.0 mg/kg/injection, schedule: Q04DX002 (ip), vehicle: Klucel (hydroxypropylcellulose) (HPC)
# [17] = dose: 100.0 mg/kg/injection, schedule: Q04DX003 (ip), vehicle: Klucel (hydroxypropylcellulose) (HPC)
# [18] = dose: 200.0 mg/kg/injection, schedule: Q04DX003 (ip), vehicle: Klucel (hydroxypropylcellulose) (HPC)
# [19] = dose: 400.0 mg/kg/injection, schedule: Q04DX003 (ip), vehicle: Klucel (hydroxypropylcellulose) (HPC)
# [20] = dose: 100.0 mg/kg/injection, schedule: Q04DX002 (ip), vehicle: saline
# [21] = dose: 200.0 mg/kg/injection, schedule: Q04DX002 (ip), vehicle: saline
compound,measurement,setting,value
CC(C(=O)O)C(C)(C)c1ccccc1 (stereo unspecified),T/C,[1],100 % of control
same,T/C,[2],99 % of control
same,T/C,[3],105 % of control
NC1=NS(=O)(=O)Nc2nonc21,T/C,[4],96 % of control
same,T/C,[5],89 % of control
same,T/C,[6],89 % of control
COC(=O)CC1(C(=O)OC)Oc2ccc(Br)cc2C(=O)N1c1cccc(Cl)c1Cl (stereo unspecified),T/C,[7],100 % of control
same,T/C,[8],91 % of control
same,T/C,[9],100 % of control
CCOC(=O)/C=C/c1c(Cl)n(C)c(=O)n(C)c1=O,T/C,"dose: 7.5 mg/kg/injection, schedule: Q01DX005 (ip), vehicle: Klucel (hydroxypropylcellulose) (HPC)",102 % of control
same,T/C,"dose: 15.0 mg/kg/injection, schedule: Q01DX005 (ip), vehicle: Klucel (hydroxypropylcellulose) (HPC)",100 % of control
same,T/C,"dose: 30.0 mg/kg/injection, schedule: Q01DX005 (ip), vehicle: Klucel (hydroxypropylcellulose) (HPC)",100 % of control
COc1ccc2c(C(=O)O)cc3c4ccccc4ncc3c2c1,T/C,"dose: 12.5 mg/kg/injection, schedule: Q01DX009 (ip), vehicle: distilled water + Tween-80",100 % of control
same,T/C,"dose: 25.0 mg/kg/injection, schedule: Q01DX009 (ip), vehicle: distilled water + Tween-80",95 % of control
same,T/C,"dose: 50.0 mg/kg/injection, schedule: Q01DX009 (ip), vehicle: distilled water + Tween-80",98 % of control
same,T/C,"dose: 100.0 mg/kg/injection, schedule: Q01DX009 (ip), vehicle: distilled water + Tween-80",96 % of control
same,T/C,"dose: 200.0 mg/kg/injection, schedule: Q01DX009 (ip), vehicle: distilled water + Tween-80",99 % of control
Nc1ccccc1SC1CC(=O)N(c2ccccc2Cl)C1=O (stereo unspecified),T/C,[4],90 % of control
same,T/C,[5],90 % of control and 95 % of control
same,T/C,[10],90 % of control
same,T/C,[6],95 % of control
same,T/C,[11],90 % of control
same,T/C,"dose: 400.0 mg/kg/injection, schedule: Q04DX003 (ip), vehicle: saline with Tween-80",95 % of control
CC(=O)Nc1c([N+](=O)[O-])cc2c3c(cccc13)CC2,T/C,[5],86 % of control
same,T/C,[6],90 % of control
COC(=O)C1C(OCc2ccccc2)C2CCC1(OC)C=C2C (stereo unspecified),T/C,"dose: 100.0 mg/kg/injection, schedule: Q04DX002 (ip), vehicle: saline with Tween-80",91 % of control
same,T/C,"dose: 200.0 mg/kg/injection, schedule: Q04DX002 (ip), vehicle: saline with Tween-80",98 % of control
same,T/C,"dose: 400.0 mg/kg/injection, schedule: Q04DX002 (ip), vehicle: saline with Tween-80",91 % of control
OCCOCCN1CCN(C(c2ccccc2)c2ccccc2)CC1,T/C,[12],103 % of control
same,T/C,[13],103 % of control
O=CC(NC(=O)CCCc1ccc(N(CCCl)CCCl)cc1)C(O)C(O)C(O)CO (stereo unspecified),T/C,"dose: 12.5 mg/kg/injection, schedule: Q01DX009 (ip), vehicle: Klucel (hydroxypropylcellulose) (HPC)",204 % of control and 215 % of control
same,T/C,"dose: 25.0 mg/kg/injection, schedule: Q01DX009 (ip), vehicle: Klucel (hydroxypropylcellulose) (HPC)",211 % of control and 227 % of control
same,T/C,[14],105 % of control and 86 % of control and 89 % of control
CN(C)c1cc2c(nn1)Nc1ccccc1S2,T/C,[4],96 % of control
same,T/C,[5],96 % of control
same,T/C,[6],90 % of control
CCc1nc(N)nc(N)c1-c1ccc(N2CC[N+](C)(C)CC2)cc1,T/C,"dose: 0.24 mg/kg/injection, schedule: Q01DX005 (ip), vehicle: saline with Tween-80",99 % of control
same,T/C,"dose: 0.48 mg/kg/injection, schedule: Q01DX005 (ip), vehicle: saline with Tween-80",101 % of control
same,T/C,"dose: 0.94 mg/kg/injection, schedule: Q01DX005 (ip), vehicle: saline with Tween-80",105 % of control
same,T/C,"dose: 0.96 mg/kg/injection, schedule: Q01DX005 (ip), vehicle: saline with Tween-80",119 % of control
O=C1SC/C(=N\N=c2/scc(-c3ccccc3)n2-c2ccc(Br)cc2)N1Cc1ccccc1,T/C,[15],86 % of control
same,T/C,[16],91 % of control
Cc1ccc(SSc2ccc(C(C)(C)C)cc2)cc1,T/C,"dose: 50.0 mg/kg/injection, schedule: Q01DX005 (ip), vehicle: Klucel (hydroxypropylcellulose) (HPC)",97 % of control
same,T/C,"dose: 100.0 mg/kg/injection, schedule: Q01DX005 (ip), vehicle: Klucel (hydroxypropylcellulose) (HPC)",102 % of control
same,T/C,"dose: 200.0 mg/kg/injection, schedule: Q01DX005 (ip), vehicle: Klucel (hydroxypropylcellulose) (HPC)",99 % of control
COc1cc2c3c(cccc3c1)C(=O)N(CCN(C)C)C2=O,T/C,"dose: 9.5 mg/kg/injection, schedule: Q01DX009 (ip), vehicle: saline with Tween-80",110 % of control
CCOC(=O)c1[nH]cc(C)c1-c1ccc(OCc2ccccc2)cc1,T/C,[1],112 % of control
same,T/C,[2],94 % of control
same,T/C,[3],103 % of control
CN(C)CCCN1c2ccccc2Oc2ccc(Cl)cc21,T/C,"dose: 50.0 mg/kg/injection, schedule: Q01DX005 (ip), vehicle: saline",105 % of control
same,T/C,"dose: 100.0 mg/kg/injection, schedule: Q01DX005 (ip), vehicle: saline",106 % of control
CCOc1ccc(N=Nc2c(C)nn(C(=S)SC)c2OCC)cc1,T/C,"dose: 60.0 mg/kg/injection, schedule: Q01DX005 (ip), vehicle: Klucel + Tween-80",95 % of control
same,T/C,"dose: 120.0 mg/kg/injection, schedule: Q01DX005 (ip), vehicle: Klucel + Tween-80",95 % of control
same,T/C,"dose: 240.0 mg/kg/injection, schedule: Q01DX005 (ip), vehicle: Klucel + Tween-80",94 % of control
Cc1ncc2n1-c1ccc(Cl)cc1C(c1ccccc1F)=NC2,T/C,[12],103 % of control
same,T/C,[13],112 % of control
COc1ccc(N=Nc2nc(N)c(C(N)=O)[nH]2)cc1,T/C,[17],100 % of control
same,T/C,[18],103 % of control
same,T/C,[19],106 % of control
O=C(CCN1CCCCC1)Nc1ccc(F)c(Cl)c1,T/C,[7],93 % of control
same,T/C,[8],102 % of control
same,T/C,[9],93 % of control
O=C1CSC(=S)N1c1ccc2c(c1)OCO2,T/C,"dose: 60.0 mg/kg/injection, schedule: Q01DX005 (ip), vehicle: saline with Tween-80",92 % of control
same,T/C,"dose: 120.0 mg/kg/injection, schedule: Q01DX005 (ip), vehicle: saline with Tween-80",90 % of control
same,T/C,"dose: 240.0 mg/kg/injection, schedule: Q01DX005 (ip), vehicle: saline with Tween-80",90 % of control
O=C(O)c1ccccc1SSC(=S)N1CCOCC1,T/C,[14],93 % of control
same,T/C,"dose: 100.0 mg/kg/injection, schedule: Q01DX009 (ip), vehicle: Klucel (hydroxypropylcellulose) (HPC)",108 % of control
same,T/C,"dose: 200.0 mg/kg/injection, schedule: Q01DX009 (ip), vehicle: Klucel (hydroxypropylcellulose) (HPC)",118 % of control
C[C@@H]1C[C@H](C)S(=O)[C@H](C)S1 (stereo partly specified),T/C,[20],101 % of control
same,T/C,[21],102 % of control
same,T/C,"dose: 400.0 mg/kg/injection, schedule: Q04DX002 (ip), vehicle: saline",100 % of control
CCCCCCCCCCCCCCCCCC(=O)NC[n+]1ccccc1,T/C,"dose: 50.0 mg/kg/injection, schedule: Q04DX002 (ip), vehicle: Klucel (hydroxypropylcellulose) (HPC)",96 % of control
same,T/C,[15],87 % of control
same,T/C,[16],91 % of control
CC(=O)Nc1ccc(S(=O)(=O)/N=C2\C=CC(=O)c3ccccc32)cc1,T/C,"dose: 25.0 mg/kg/injection, schedule: Q01DX009 (ip), vehicle: saline with Tween-80",105 % of control
same,T/C,[4],115 % of control
same,T/C,[5],110 % of control
COCC1CCCN1 (stereo unspecified),T/C,[20],104 % of control
same,T/C,[21],110 % of control
O=C1CC(O)(c2ccccc2)CCS1 (stereo unspecified),T/C,[17],99 % of control
same,T/C,[18],107 % of control
same,T/C,[19],106 % of control
O=C(O)CSC(=S)Nc1ccccn1,T/C,[4],94 % of control
same,T/C,[5],90 % of control
same,T/C,[6],100 % of control
CC1(CSc2ccccc2)CC(=O)N1 (stereo unspecified),T/C,"dose: 50.0 mg/kg/injection, schedule: Q01DX009 (ip), vehicle: suspension in saline",111 % of control
same,T/C,"dose: 100.0 mg/kg/injection, schedule: Q01DX009 (ip), vehicle: suspension in saline",98 % of control
same,T/C,"dose: 200.0 mg/kg/injection, schedule: Q01DX009 (ip), vehicle: suspension in saline",99 % of control
Cc1cc(=O)c2c(=O)[nH][nH]c2[nH]1,T/C,"dose: 50.0 mg/kg/injection, schedule: Q04DX003 (ip), vehicle: saline with Tween-80",100 % of control
same,T/C,[10],90 % of control
same,T/C,[11],90 % of control
